Here are results for twelve compounds from patent US5214034A, “Catechol derivatives, and preventive and remedial preparations for regressive disorders in the central nervous system containing the same” (priority 1986, dated 1993).

SMILES strings stand for the structures. Like-named read-outs stand apart in the source and are kept apart here.

For data set [1], the system named is production and secretion of NGF on L-M cells. The data set is described as follows: Promoting action for the production and secretion of NGF on L-M cells of mouse (ELISA). It is filed as cell-based. The note with it: for fold induction at 30 µM / fold induction at 100 µM / fold induction at 150 µM: Mus musculus; for Ratio of NGF increase: 1440 min. From the text: Catecholamines have also been found in a relatively high concentration to accelerate these functions without being mediated by adrenergic receptors [Y. Furukawa et al., J. Biol. Chem., 261, 6039-6047 (1986)].
The compound having a high activity in Table 1, that is, the catechol derivative having a n-alkyl group in the 3 or 4 position on the ring has been observed an acute cell toxicity in higher concentrations. The toxicity was considered the result of two hydroxyl groups in the catechol structure. Then the hydroxyl groups were esterified or etherified and the resulting derivative was examined the effect on the activity for the production and secretion of NGF.
The experiment was performed according to the procedures of Y. Furukawa et al. which is described in J. Bis Chem., 261, 6039-6047 (1986).
The medium was cultured for 3 days at a temperature of 37° C. After completing the confluency (about 10^6 cells/well), the medium was changed to Medium 199 (0.5 ml/well) containing 0.5% bovine serum albumin (Fraction V, a product of Armour Co.). The sample of the derivative is contained in the medium at a prescribed concentration as illustrated in the Tables.
For orientation: An ELISA detects its analyte on a solid surface through an enzyme-linked reagent.

Data set [2] concerns production and secretion of NGF in brain astroglial cells. The data set is described as follows: Promoting activity for the production and secretion of NGF in brain astroglial cells of mouse (ELISA). As for the experimental part: The experiment was performed by inducing the astroglial cells from mouse forebrain to culture system according to the procedures of S. Furukawa et al. which is described in Biochem. Biophys. Res. Commun., 136, 57-63 (1986).
That is, forebrains of 8-day old mice were dissected out and cut into small pieces. […] Cells and cell clamps were recovered by centrifugation at 200 xg for 5 minutes. They were cultured in Dulbecco modified Eagle's medium (a product of Gibco Co. hereinafter abbreviated as DMEM) containing 10% of fetal calf serum, […] of penicillin, and 50 μg/ml of streptomycin, for 10 to 14 days with medium changes every 3 days. After completing confluency, the cells were dissociated by trypsin treatment and recultured in new culture flasks. This procedure was repeated further twice and more. […] The cells will hereinafter be referred to as astroglial cells.
Astroglial cells were innoculated in 24-well plates having a well surface area of 2.1 cm^2 (a product of Falcon Co.) at a cell density of about 3×10^4 cells/well and cultured for 3 days in DMEM . medium supplemented with 10% of fetal calf serum. After completing confluency about 10^7 cells/well), the medium was changed to DMEM medium (0.5 ml/well) supplemented with 0.5% of bovine serum albumin ((fraction V) and cultured for 3 days. The culture was further continued with medium changes every 3 days. After cells were practically synchronized in the quiscent stage, the medium was changed to 0.5 ml of the medium supplemented with 0.5% of bovine serum albumin and containing a prescribed concentration of test sample as illustrated in Tables. […] Data are expressed as fold increase in NGF content over that in the absence of the test sample. […] Data are presented as means ±SE of four determinations.

Where [3] appears, read: 24 h, Table 1, 0.03 mM, 24 hours, mean ± SE of four determinations, read-out: Ratio of NGF increase.
[4] abbreviates: 24 h, Table 1, 0.10 mM, 24 hours, mean ± SE of four determinations, read-out: Ratio of NGF increase.
The mark [5] stands for this setting: 24 h, read-out: Ratio of NGF increase, Table 3, 0.10 mM, 24 hours, mean ± SE of four determinations.
Setting [6] is: 24 h, read-out: Ratio of NGF increase, Table 3, 0.25 mM, 24 hours, mean ± SE of four determinations.
The mark [7] stands for this setting: 24 h, read-out: Ratio of NGF increase, 24-hr culture.
Where [8] appears, read: 48 h, read-out: Ratio of NGF increase, 48-hr culture.

With `CCc1ccc(O)c(O)c1C` [R = Two H, R1 = Methyl, R2 = Ethyl], the fold induction at 30 µM in data set [1] (setting [3]) was found to be 6.31 ± 0.39. Moreover, the fold induction at 100 µM in data set [1] (setting [4]) was 3.19 ± 0.73; in data set [2] (setting [5]), 50.3 ± 6.27. Further, the “Ratio of NGF increase” value in data set [1] (Table 1, 0.03 mM, 24 hours, mean ± SE of four determinations, 30 µM) is listed as 5.39 ± 0.31 fold; in data set [1] (Table 1, 0.10 mM, 24 hours, mean ± SE of four determinations, 100 µM), 5.22 ± 0.27 fold. Also, the fold induction at 250 µM in data set [2] (setting [6]) was determined as 26.2 ± 2.6.

As for `Cc1ccc(O)c(O)c1C` [R = Two H, R1 = Methyl, R2 = Methyl], the fold induction at 30 µM in data set [1] (setting [3]) came to 2.86 ± 0.12. Besides, the fold induction at 100 µM in data set [1] (setting [4]) was 3.11 ± 0.22.

With `CCCCc1ccc(O)c(O)c1C` [R = Two H, R1 = Methyl, R2 = n-Butyl], in data set [1] (setting [3]), the fold induction at 30 µM turned out to be 6.87 ± 0.6. Besides, the fold induction at 100 µM is 7.73 ± 0.53 in data set [1] (setting [4]) and 49.8 ± 3.65 in data set [2] (setting [5]). Also, in data set [2] (setting [6]), the fold induction at 250 µM was found to be 76.2 ± 6.64.

Take `CCCc1ccc(O)c(O)c1C` [R = Two H, R1 = Methyl, R2 = n-Propyl]: the fold induction at 30 µM in data set [1] (setting [3]) turned out to be 6.34 ± 0.46. Further, the fold induction at 100 µM was 7.25 ± 0.32 in data set [1] (setting [4]) and 41.3 ± 2.55 in data set [2] (setting [5]). Also, in data set [2] (setting [6]), the fold induction at 250 µM came out at 61.6 ± 4.62.

In the case of `CCC(C)c1ccc(O)c(O)c1C` (stereo not drawn) [R = Two H, R1 = Methyl, R2 = sec-Butyl], the fold induction at 30 µM in data set [1] (setting [3]) amounted to 6.74 ± 0.25. Further, in data set [1] (setting [4]), the fold induction at 100 µM is 7 ± 0.76.

As to `Cc1c(C(C)(C)C)ccc(O)c1O` [R = Two H, R1 = Methyl, R2 = tert-Butyl], the fold induction at 30 µM in data set [1] (setting [3]) stood at 2.82 ± 0.14. Also, the fold induction at 100 µM in data set [1] (setting [4]) came out at 3.65 ± 0.39; in data set [2] (setting [5]), 9.65 ± 2.42. For the same compound, the fold induction at 250 µM in data set [2] (setting [6]) turned out to be 24.2 ± 2.73.

As to `CCCCc1cccc(O)c1O` [R = Two H, R1 = n-Butyl, R2 = H], the fold induction at 30 µM in data set [1] (setting [3]) came out at 8.33 ± 0.52. In data set [2] (setting [5]), the fold induction at 100 µM was 56.2 ± 1.87. In data set [2] (setting [6]), the fold induction at 250 µM stood at 93.3 ± 1.65.

Turning to `CCCCc1c(C)ccc(O)c1O` [R = Two H, R1 = n-Butyl, R2 = Methyl], the fold induction at 30 µM in data set [1] (setting [3]) is 6.33 ± 0.75. Also, the fold induction at 100 µM in data set [1] (setting [4]) amounted to 6.9 ± 0.62.

`CCCCCc1cccc(O)c1O` [R = Two H, R1 = n-Pentyl, R2 = H]: in data set [1] (setting [3]), the fold induction at 30 µM is 5.26 ± 0.43. Besides, the fold induction at 100 µM in data set [1] (setting [4]) was 9.95 ± 0.98; in data set [2] (setting [5]), 37.2 ± 1.28. Moreover, the fold induction at 250 µM in data set [2] (setting [6]) was 51.5 ± 1.4.

In the case of `CCCc1c(C)ccc(O)c1O` [R = Two H, R1 = n-Propyl, R2 = Methyl], the fold induction at 30 µM in data set [1] (setting [3]) turned out to be 6.09 ± 0.65. In addition, the fold induction at 100 µM in data set [1] (setting [4]) was determined as 6.98 ± 0.51.

As to `CC(=O)Oc1ccc(C)cc1OC(C)=O` [R = Two acetyl, R1 = H, R2 = Methyl], the fold induction at 30 µM amounted to 4.92 ± 0.94 in data set [1] (24 h, Table 2, 0.03 mM, 24-hr culture, read-out: Ratio of NGF increase, 24-hr culture) and 7.71 ± 0.86 in data set [1] (48 h, Table 2, 0.03 mM, 48-hr culture, read-out: Ratio of NGF increase, 48-hr culture). Further, the fold induction at 150 µM in data set [1] (24 h, Table 2, 0.15 mM, 24-hr culture, read-out: Ratio of NGF increase, 24-hr culture) was determined as 4.21 ± 0.4; in data set [1] (48 h, Table 2, 0.15 mM, 48-hr culture, read-out: Ratio of NGF increase, 48-hr culture), 6.27 ± 0.75. The fold induction at 100 µM in data set [2] (24 h, read-out: Ratio of NGF increase, 24-hr culture, Table 4, 0.10 mM, 24-hr culture) was 49.8 ± 6.44; in data set [2] (48 h, read-out: Ratio of NGF increase, 48-hr culture, Table 4, 0.10 mM, 48-hr culture) it was 77.3 ± 6.52. In addition, the fold induction at 250 µM worked out at 41.2 ± 7.32 in data set [2] (24 h, read-out: Ratio of NGF increase, 24-hr culture, Table 4, 0.25 mM, 24-hr culture) and 82.4 ± 7.24 in data set [2] (48 h, read-out: Ratio of NGF increase, 48-hr culture, Table 4, 0.25 mM, 48-hr culture).

On to `COc1ccc(C)cc1OC` [R = Two methyl, R1 = H, R2 = Methyl, reference compound], for which, in data set [1] (setting [7]), the fold induction at 30 µM is 1.04 ± 0.07 and the fold induction at 150 µM was determined as 0.98 ± 0.06. In data set [1] (setting [8]), the fold induction at 30 µM was 1.03 ± 0.07 and the fold induction at 150 µM is 0.98 ± 0.02.
